# Experimental data taken from PubChem BioAssay (NCI).
#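 The compound was tested at five concentrations on cells cultured in 96-well plates, with a 48-hour exposure period. Definition used: TGI = concentration required for complete inhibition of growth.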
# Tests used:
# Test in all cases: NCI anticancer screen, dose series, 48 h
# [1] = tested on: SNB-78 CNS
# [2] = tested on: DMS 114 small cell lung
# [3] = tested on: TK-10 renal
# [4] = tested on: SR leukemia
# [5] = tested on: OVCAR-4 ovarian
# [6] = tested on: HCT-15 colon
# [7] = tested on: K-562 leukemia
# [8] = tested on: SK-MEL-28 melanoma
# [9] = tested on: EKVX NSCLC
# [10] = tested on: CCRF-CEM leukemia
# [11] = tested on: HCT-116 colon
# [12] = tested on: ACHN renal
# [13] = tested on: HOP-62 NSCLC
# [14] = tested on: UO-31 renal
# [15] = tested on: LOX IMVI melanoma
# [16] = tested on: OVCAR-8 ovarian
# [17] = tested on: CAKI-1 renal
# [18] = tested on: DLD-1 colon
# [19] = tested on: NCI-H522 lung
# [20] = tested on: 786-0 renal
# [21] = tested on: SK-OV-3 ovarian
# [22] = tested on: SNB-19 CNS
# [23] = tested on: U251 CNS
# [24] = tested on: MOLT-4 leukemia
# [25] = tested on: HL-60(TB) leukemia
# [26] = tested on: NCI-H226 lung
# [27] = tested on: OVCAR-3 ovarian
# [28] = tested on: RPMI-8226 leukemia
# [29] = tested on: HCC-2998 colon
# [30] = tested on: MALME-3M melanoma
# [31] = tested on: UACC-62 melanoma
# [32] = tested on: HOP-92 NSCLC
# [33] = tested on: HT29 colon
# [34] = tested on: IGROV1 ovarian
# [35] = tested on: M14 melanoma
# [36] = tested on: SF-295 CNS
# [37] = tested on: NCI-H23 lung
# [38] = tested on: A549 NSCLC
# [39] = tested on: KM20L2 colon
# [40] = tested on: M19-MEL melanoma
# [41] = tested on: COLO 205 colon
# [42] = tested on: SK-MEL-2 melanoma
# [43] = tested on: SN12C renal
# [44] = tested on: SF-539 CNS
# [45] = tested on: SNB-75 CNS
# [46] = tested on: KM12 colon
# [47] = tested on: SK-MEL-5 melanoma
# [48] = tested on: LXFL 529 NSCLC
# [49] = tested on: SF-268 CNS
# [50] = tested on: XF 498 CNS
# [51] = tested on: OVCAR-5 ovarian
# [52] = tested on: UACC-257 melanoma
# [53] = tested on: SW-620 colon
# [54] = tested on: DMS 273 small cell lung
# [55] = tested on: NCI-H460 lung
# [56] = tested on: RXF 393 renal
# [57] = tested on: HOP-18 NSCLC
smiles,measurement,setting,value
COc1cc(Cc2cc(OC)c(OC)c(OC)c2)ccc1O,TGI,[1],> 100 µM
same,TGI,[2],> 100 µM
same,TGI,[3],> 100 µM
same,TGI,[4],> 100 µM
same,TGI,[5],> 100 µM
same,TGI,[6],> 100 µM
same,TGI,[7],> 100 µM
same,TGI,[8],> 100 µM
same,TGI,[9],> 100 µM
same,TGI,[10],> 100 µM
same,TGI,[11],> 100 µM
same,TGI,[12],> 100 µM
same,TGI,[13],> 100 µM
same,TGI,[14],> 100 µM
same,TGI,[15],> 100 µM
same,TGI,[16],> 100 µM
same,TGI,[17],> 100 µM
same,TGI,[18],> 100 µM
same,TGI,[19],39.5 µM
same,TGI,[20],> 100 µM
same,TGI,[21],> 100 µM
same,TGI,[22],> 100 µM
same,TGI,[23],> 100 µM
same,TGI,[24],> 100 µM
same,TGI,[25],6.55 µM
same,TGI,[26],> 100 µM
same,TGI,[27],52.4 µM
same,TGI,[28],> 100 µM
same,TGI,[29],> 100 µM
same,TGI,[30],12 µM
same,TGI,[31],> 100 µM
same,TGI,[32],> 100 µM
same,TGI,[33],> 100 µM
same,TGI,[34],> 100 µM
same,TGI,[35],> 100 µM
same,TGI,[36],28.6 µM
same,TGI,[37],> 100 µM
same,TGI,[38],> 100 µM
same,TGI,[39],> 100 µM
same,TGI,[40],> 100 µM
same,TGI,[41],> 100 µM
same,TGI,[42],64.5 µM
same,TGI,[43],> 100 µM
same,TGI,[44],56.2 µM
same,TGI,[45],28.6 µM
same,TGI,[46],> 100 µM
same,TGI,[47],> 100 µM
same,TGI,[48],> 100 µM
same,TGI,[49],> 100 µM
same,TGI,[50],> 100 µM
same,TGI,[51],> 100 µM
same,TGI,[52],> 100 µM
same,TGI,[53],> 100 µM
Cc1cc(=O)[nH]c(NNC(C#N)c2ccc(O)cc2)n1 (stereo unspecified),TGI,[1],> 100 µM
same,TGI,[2],> 100 µM
same,TGI,[3],> 100 µM
same,TGI,[4],> 100 µM
same,TGI,[5],> 100 µM
same,TGI,[6],> 100 µM
same,TGI,[7],> 100 µM
same,TGI,[8],> 100 µM
same,TGI,[10],> 100 µM
same,TGI,[11],> 100 µM
same,TGI,[12],> 100 µM
same,TGI,[13],> 100 µM
same,TGI,[14],> 100 µM
same,TGI,[15],> 100 µM
same,TGI,[16],> 100 µM
same,TGI,[17],> 100 µM
same,TGI,[18],> 100 µM
same,TGI,[19],> 100 µM
same,TGI,[20],> 100 µM
same,TGI,[21],> 100 µM
same,TGI,[23],> 100 µM
same,TGI,[54],> 100 µM
same,TGI,[24],> 100 µM
same,TGI,[25],> 100 µM
same,TGI,[26],> 100 µM
same,TGI,[27],> 100 µM
same,TGI,[28],> 100 µM
same,TGI,[55],> 100 µM
same,TGI,[30],> 100 µM
same,TGI,[31],> 100 µM
same,TGI,[32],> 100 µM
same,TGI,[33],> 100 µM
same,TGI,[34],> 100 µM
same,TGI,[56],> 100 µM
same,TGI,[35],> 100 µM
same,TGI,[36],> 100 µM
same,TGI,[37],> 100 µM
same,TGI,[38],> 100 µM
same,TGI,[39],> 100 µM
same,TGI,[57],> 100 µM
same,TGI,[40],> 100 µM
same,TGI,[41],> 100 µM
same,TGI,[42],> 100 µM
same,TGI,[43],> 100 µM
same,TGI,[44],> 100 µM
same,TGI,[45],> 100 µM
same,TGI,[46],> 100 µM
same,TGI,[47],> 100 µM
same,TGI,[48],> 100 µM
same,TGI,[49],> 100 µM
same,TGI,[51],> 100 µM
same,TGI,[52],> 100 µM
same,TGI,[53],> 100 µM
